Results: US20150099012A1, “METHODS FOR ACTIVATING RETROVIRUS IN LATENT INFECTED CELLS, AND COMPOUNDS FOR USE THEREIN” (Erasmus University Medical Center Rotterdam, priority 2012, published 2015)
“Also recorded” adds a separate entry of the source.

Key:
latent HIV LTR = test: Activation of latent HIV LTR in J-Lat/S-Lat latently infected cell lines (GFP reporter, FACS); type: cell-based, HIV-1; conditions: single agents; J-Lat/S-Lat or 1G5 cells; FIG. 5
Protocol: A) S-Lat 46, J-Lat P32, J-Lat A2, J-Lat 11.1, S-Lat 24, S-Lat 9 and […], and GFP expression was monitored by FACS analysis to determine activation of the latent LTR. B) J-Lat P32 and (C) S-Lat 30 Jurkats and SupT1 cell lines harbouring latently infected HIV were either untreated or treated with 2, 5 or 10 mM LiCl as indicated. Expression of HIV-LTR driven P24 and GFP, and endogenous Wnt target genes AXIN2, MMP9, TCF1, as well as control GAPDH and NFkB target genes TLR2 and ICAM1 was monitored by qRT-PCR 72 hours after treatment. Expression data are presented as fold induction normalized to Cyclophillin A control.
Expression data are presented as fold induction normalized to Cyclophillin A control.

[1] = system: b-catenin recruitment to HIV LTR; test: b-catenin ChIP at the HIV LTR in J-Lat cells; type: cell-based; conditions: latent J-Lat cells; FIG. 4D
Protocol: (§1) (A) Schematic representation of strategy to explore nucleosome position changes and enrichment of LEF/b-catenin at the HIV LTR in its repressed state and after Wnt activation. Jurkat latent cells at 0, and 12 hours after stimulation with LiCl, BIO VPA, or LiCl and VPA together were crosslinked and sonicated to yield DNA fragments of approximately 150 bp. DNA accessibility was monitored by formaldehyde-assisted isolation of regulatory elements (FAIRE) while nucleosome occupancy was determined by histone H2B Chromatin immunoprecipitations (ChIPs). To determine enrichment of LEF, b-catenin, or Histone Acetyl H3, we performed ChIPs with antibodies specific for LEF1, b-catenin, Ac H3. (B) Wnt activation by treatment with LiCl/BIO is accompanied by an increase in DNA accessibility over the DHS1 of the HIV LTR. […] FAIRE results are presented as fold change respective to the unstimulated value (normalized to 1) for each primer pair. (D) b-catenin while absent from the LTR in the repressed state, directly binds to the LTR upon LiCl/BIO activation. LEF1 binding, while present on the LTR in the repressed state is enriched upon LiCl/BIO treatment. […] Immunoprecipitated DNA from ChIPs and phenol:chloroform extracted DNA from FAIRE were analyzed by qPCR using primer pairs specific for the HIV LTR nuc-0, DHS1, nuc-1, and nuc-2 regions, and control region amplifying upstream of the Axin2 gene. […]

LEF1 binding at HIV LTR = test: LEF1 ChIP at the HIV LTR in J-Lat cells; type: cell-based; conditions: latent J-Lat cells; FIG. 4D
Protocol: as §1

[2] = system: histone acetylation on the HIV LTR; test: Histone Acetyl H3 ChIP at the HIV LTR in J-Lat cells; type: cell-based; conditions: latent J-Lat cells; FIG. 4D
Protocol: as §1

HIV LTR DHS1 and nuc-1 [3] = test: FAIRE DNA accessibility at the HIV LTR; type: cell-based; conditions: latent J-Lat cells, 12 hours after stimulation; FIG. 4B
Protocol: as §1

HIV LTR DHS1 and nuc-1 [4] = test: Histone H2B ChIP nucleosome occupancy at the HIV LTR; type: cell-based; conditions: latent J-Lat cells, 12 hours after stimulation; FIG. 4C
Protocol: as §1

## O=C1Nc2cc(Br)ccc2/C1=C1/Nc2ccccc2/C1=N\O [BIO, (2′Z,3′E)-6-Bromoindirubin-3′-oxime]
Latent HIV LTR
  de-repression / activation of latent HIV LTR: de-repression of latent HIV LTR; also recorded: activates the LTR in latently HIV infected cells
[1]
  recruitment of b-catenin to the HIV LTR (ChIP): recruitment of b-catenin to LTR DHS1 and nuc-1
LEF1 binding at HIV LTR
  enrichment of LEF1 at the HIV LTR (ChIP): enrichment of LEF1 at the HIV LTR
[2]
  histone acetylation on the LTR (Ac H3 ChIP): histone acetylation is increased on the LTR
HIV LTR DHS1 and nuc-1 [3]
  DNA accessibility at the HIV LTR (FAIRE): increase accessibility
HIV LTR DHS1 and nuc-1 [4]
  nucleosome occupancy / histone density at the HIV LTR (H2B ChIP): decreased nucleosome occupancy at DHS1
